ChEMBL document CHEMBL4342488, “Structure-Activity Relationship Study of Covalent Pan-phosphatidylinositol 5-Phosphate 4-Kinase Inhibitors” (ACS Med Chem Lett, 2020)

Legend:
[1] = target: T1, Phosphatidylinositol 5-phosphate 4-kinase type-2 gamma (Homo sapiens, UniProt Q8TBX8); assay: Inhibition of PI5P4Kgamma (unknown origin)
T1 sequence (Q8TBX8 whole entry): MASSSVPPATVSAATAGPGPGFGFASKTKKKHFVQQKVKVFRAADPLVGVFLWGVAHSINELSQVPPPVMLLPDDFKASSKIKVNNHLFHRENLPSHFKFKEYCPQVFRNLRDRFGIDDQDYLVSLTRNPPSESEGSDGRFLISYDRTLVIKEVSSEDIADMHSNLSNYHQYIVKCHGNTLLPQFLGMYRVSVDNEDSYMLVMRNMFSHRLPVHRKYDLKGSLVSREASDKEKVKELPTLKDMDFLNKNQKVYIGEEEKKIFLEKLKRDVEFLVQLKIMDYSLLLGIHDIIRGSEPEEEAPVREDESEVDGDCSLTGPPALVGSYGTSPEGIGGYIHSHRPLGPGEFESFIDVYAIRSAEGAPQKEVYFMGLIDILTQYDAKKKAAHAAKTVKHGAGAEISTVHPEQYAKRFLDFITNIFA

[2] = target: T2, Phosphatidylinositol 5-phosphate 4-kinase type-2 alpha (Homo sapiens, UniProt P48426); assay: Inhibition of PI5P4Kalpha (unknown origin) incubated for 15 mins in presence of ATP by ADP-Glo assay
T2 sequence (P48426 whole entry): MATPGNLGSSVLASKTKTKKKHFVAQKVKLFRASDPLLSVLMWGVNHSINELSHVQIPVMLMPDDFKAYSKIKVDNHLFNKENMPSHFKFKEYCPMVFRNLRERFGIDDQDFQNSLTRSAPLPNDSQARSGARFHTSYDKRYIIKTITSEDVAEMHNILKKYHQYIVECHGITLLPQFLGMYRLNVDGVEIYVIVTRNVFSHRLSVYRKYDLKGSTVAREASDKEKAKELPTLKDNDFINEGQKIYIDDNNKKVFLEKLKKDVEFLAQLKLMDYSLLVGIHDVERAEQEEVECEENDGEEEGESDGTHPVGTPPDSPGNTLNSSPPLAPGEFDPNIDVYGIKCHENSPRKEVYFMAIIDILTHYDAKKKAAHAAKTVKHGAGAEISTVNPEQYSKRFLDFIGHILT

[3] = target: T3, Phosphatidylinositol 5-phosphate 4-kinase type-2 beta (Homo sapiens, UniProt P78356); assay: Inhibition of PI5P4Kbeta (unknown origin) incubated for 15 mins in presence of ATP by ADP-Glo assay
T3 sequence (P78356 whole entry): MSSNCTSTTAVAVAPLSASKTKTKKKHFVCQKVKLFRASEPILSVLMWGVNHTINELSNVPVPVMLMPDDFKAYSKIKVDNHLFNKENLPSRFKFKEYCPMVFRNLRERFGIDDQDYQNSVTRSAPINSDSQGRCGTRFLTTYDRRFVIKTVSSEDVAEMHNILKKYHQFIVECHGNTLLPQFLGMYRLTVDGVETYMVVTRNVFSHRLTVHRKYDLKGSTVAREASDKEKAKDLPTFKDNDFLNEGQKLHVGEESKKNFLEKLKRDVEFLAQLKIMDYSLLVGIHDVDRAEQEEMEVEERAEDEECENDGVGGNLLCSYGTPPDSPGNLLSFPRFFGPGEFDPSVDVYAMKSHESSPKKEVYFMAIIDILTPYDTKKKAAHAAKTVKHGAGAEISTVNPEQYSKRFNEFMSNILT

Cn1nnnc1Sc1ncnc2scc(-c3cccc(S(C)(=O)=O)c3)c12
IC50 [1]: 15.8 µM

CN(C)C/C=C/C(=O)Nc1cccc(NC(=O)N2CCCC(Nc3cc(-c4cnc5[nH]ccc5c4)ncn3)C2)c1 (stereo unspecified)
IC50 [2]: Not Active
IC50 [3]: Not Active

FC(F)(F)c1ccccc1-c1nc(NCc2cccs2)c2ccccc2n1
IC50 [1]: 1 µM

Cc1ccc(-n2ccc3c(Nc4cccc(NC(=O)c5ccc(NC(=O)/C=C/CN(C)C)cc5)c4)ncnc32)cc1
IC50 ([2]; read-out: IC50): 1340 nM
IC50 ([3]; read-out: IC50): 9.9 µM
